Key:
[1] = test system: SGC-7901 (human gastric cancer cell line); test: MTT in vitro cytotoxicity assay, SGC-7901; type: cell-based; settings: for IC50: SGC-7901, Table 3, MTT, mean ± S.D.; for inhibition at 100 µM: SGC-7901, at 100 µM, read-out: Cell growth inhibition (%) SGC-7901
Description: (§1) The lead molecules A2 and all newly prepared diarylamine derivatives B1-13 and C1-11 were evaluated for their in vitro cytotoxic effects against SGC-7901, A875, HepG2 and MARC145 cell lines by the classical MTT [3-(4,5-dimethylthiazol-2-yl)-2,5-diphenyl tetrazolium bromide] assay ([Alley et al., 1988]; [Ke et al., 2012]; [Shi et al., 2012]; [Yu et al., 2015]; [Ke et al., 2019]; [Xu et al., 2019]; [Huang et al., 2021]) using 5-FU (5-Fluorouracil) as a control.
(§2) The cytotoxicity of target compounds was determined with MTT assay ([Alley et al., 1988]; [Ke et al., 2012]; [Shi et al., 2012]; [Yu et al., 2015]; [Ke et al., 2019]; [Xu et al., 2019]; [Huang et al., 2021]). SGC-7901, A875, HepG2 and MARC145 cell lines were obtained from Hubei Biopesticide Engineering Research Centre. All data of the experiment were analyzed with SPSS software, and all assay were performed in triplicate on three independent experiments, and measurement data were expressed as the mean ± S.D.
(§3) The in vitro cytotoxicity of the synthesized compounds against different cell lines (SGC-7901, A875, HepG2 and MARC145) was measured with MTT assay. All the data of the experiment were analyzed with SPSS software, and the 50% inhibitory concentrations (IC50) of each compound for the different cell lines were determined. A control was run for each test, and all assays were performed in triplicate on three independent experiments, and measurement data were expressed as the mean ± S.D.

[2] = test system: A875 (human melanoma cell line); test: MTT in vitro cytotoxicity assay, A875; type: cell-based; settings: for IC50: A875, Table 3, MTT, mean ± S.D.; for inhibition at 100 µM: A875, at 100 µM, read-out: Cell growth inhibition (%) A875
Description: as §1, §2, §3

[3] = test system: HepG2 (human hepatocellular liver carcinoma cell line); test: MTT in vitro cytotoxicity assay, HepG2; type: cell-based; settings: for IC50: HepG2, Table 3, MTT, mean ± S.D.; for inhibition at 100 µM: HepG2, at 100 µM, read-out: Cell growth inhibition (%) HepG2
Description: as §1, §2, §3

[4] = MTT in vitro cytotoxicity assay, MARC145; type: cell-based, African green monkey; settings: African green monkey, MARC145 cells (kidney cell line, subclone of MA-104), Table 3; MTT; mean ± S.D.
Description: as §1, §2, §3

[5] = test system: MARC145 (subclone of African green monkey kidney cell line MA-104); test: MTT in vitro cytotoxicity assay, MARC145; type: cell-based; settings: at 100 µM; for inhibition at 100 µM: Chlorocebus sabaeus, MARC145, read-out: Cell growth inhibition (%) MARC145
Description: as §1, §2, §3

AKT1 = AKT1 (Homo sapiens, UniProt P31749); test: ADP-GLO kinase inhibitory assay, AKT1; type: biochemical
Description: (§4) Based on the aforementioned results for the potential mechanism of action, the kinase inhibitory profile of compounds C6 and C11 were screened at two dose concentration of 10 and 1 µM over a panel of 15 kinases, and the kinase inhibitory activities are listed in supporting information (Supplementary Table S1).
(§5) The kinase inhibitory profile of compounds C6 and C11 were screened at two dose concentration of 10 and 1 µM over a panel of 15 kinases, and each assay was repeated twice. All the inhibitory assays were carried out through kinase profiling services provided by HY Biotech (Chinese), in which ADP-GLO kinase assays were used.
as §5, with “10 µM” for “10”

AKT3 = AKT3 (Homo sapiens, UniProt Q9Y243); test: ADP-GLO kinase inhibitory assay, AKT3; type: biochemical
Description: as §4, §5
as §5, with “10 µM” for “10”

CHK1 = target: T1, CHK1 (Homo sapiens, UniProt O14757); test: ADP-GLO kinase inhibitory assay, CHK1; type: biochemical
T1 sequence (O14757 1-476): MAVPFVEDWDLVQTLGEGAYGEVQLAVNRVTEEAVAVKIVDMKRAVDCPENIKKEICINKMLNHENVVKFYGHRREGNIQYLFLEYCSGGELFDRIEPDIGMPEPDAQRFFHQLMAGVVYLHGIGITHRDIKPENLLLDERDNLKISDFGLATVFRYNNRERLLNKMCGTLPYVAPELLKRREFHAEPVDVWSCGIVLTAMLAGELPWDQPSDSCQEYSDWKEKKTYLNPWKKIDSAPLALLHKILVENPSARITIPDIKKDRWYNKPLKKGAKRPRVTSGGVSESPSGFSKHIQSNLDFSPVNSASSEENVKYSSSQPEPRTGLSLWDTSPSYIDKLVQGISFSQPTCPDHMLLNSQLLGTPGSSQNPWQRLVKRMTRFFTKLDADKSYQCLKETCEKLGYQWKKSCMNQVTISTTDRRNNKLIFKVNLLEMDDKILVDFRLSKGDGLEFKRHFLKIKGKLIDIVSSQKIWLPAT
Description: as §4, §5
as §5, with “10 µM” for “10”

DAPK1 = DAPK1 (Homo sapiens, UniProt P53355); test: ADP-GLO kinase inhibitory assay, DAPK1; type: biochemical
Description: as §4, §5
as §5, with “10 µM” for “10”

MAPK1 = MAPK1 (Homo sapiens, UniProt P28482); test: ADP-GLO kinase inhibitory assay, MAPK1; type: biochemical; settings: for inhibition of MAPK1, in words: at 1 μM
Description: as §4, §5
as §5, with “10 µM” for “10”

CDK2/A2 = CDK2/A2 (Homo sapiens, UniProt P24941); test: ADP-GLO kinase inhibitory assay, CDK2/A2; type: biochemical; settings: for inhibition of CDK2/A2, in words: at 1 μM
Description: as §4, §5
as §5, with “10 µM” for “10”

ERK1 = ERK1 (Homo sapiens, UniProt P27361); test: ADP-GLO kinase inhibitory assay, ERK1; type: biochemical
Description: as §4, §5
as §5, with “10 µM” for “10”

PAK3 = PAK3 (Homo sapiens, UniProt O75914); test: ADP-GLO kinase inhibitory assay, PAK3; type: biochemical
Description: as §4, §5
as §5, with “10 µM” for “10”

CAMK2 alpha = CAMK2 alpha (Homo sapiens, UniProt Q9UQM7); test: ADP-GLO kinase inhibitory assay, CAMK2 alpha; type: biochemical
Description: as §4, §5
as §5, with “10 µM” for “10”

ERK1, sequence (P27361 whole entry, species assumed): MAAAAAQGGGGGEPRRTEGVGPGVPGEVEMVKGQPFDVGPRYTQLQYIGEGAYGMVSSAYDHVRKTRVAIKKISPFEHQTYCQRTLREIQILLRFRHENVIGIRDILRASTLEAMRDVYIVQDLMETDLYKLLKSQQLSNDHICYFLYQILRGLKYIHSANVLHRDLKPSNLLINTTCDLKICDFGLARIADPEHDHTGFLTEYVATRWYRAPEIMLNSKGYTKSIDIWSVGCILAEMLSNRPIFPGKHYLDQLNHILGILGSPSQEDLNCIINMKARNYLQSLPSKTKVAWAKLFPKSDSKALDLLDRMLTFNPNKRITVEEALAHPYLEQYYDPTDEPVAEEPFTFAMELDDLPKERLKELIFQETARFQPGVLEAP
AKT1, sequence (P31749 whole entry, species assumed): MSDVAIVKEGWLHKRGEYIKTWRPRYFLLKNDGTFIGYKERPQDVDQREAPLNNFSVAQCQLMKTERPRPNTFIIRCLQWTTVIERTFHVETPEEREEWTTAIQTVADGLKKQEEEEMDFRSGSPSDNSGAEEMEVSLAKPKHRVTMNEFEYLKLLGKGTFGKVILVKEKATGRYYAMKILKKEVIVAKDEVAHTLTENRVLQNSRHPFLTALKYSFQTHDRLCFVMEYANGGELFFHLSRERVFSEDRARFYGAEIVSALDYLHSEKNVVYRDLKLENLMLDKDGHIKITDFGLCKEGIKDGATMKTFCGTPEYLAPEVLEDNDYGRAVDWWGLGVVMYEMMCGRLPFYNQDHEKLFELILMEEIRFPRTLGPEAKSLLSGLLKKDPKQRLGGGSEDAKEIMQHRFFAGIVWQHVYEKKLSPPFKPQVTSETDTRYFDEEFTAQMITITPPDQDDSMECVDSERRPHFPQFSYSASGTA
AKT3, sequence (Q9Y243 whole entry, species assumed): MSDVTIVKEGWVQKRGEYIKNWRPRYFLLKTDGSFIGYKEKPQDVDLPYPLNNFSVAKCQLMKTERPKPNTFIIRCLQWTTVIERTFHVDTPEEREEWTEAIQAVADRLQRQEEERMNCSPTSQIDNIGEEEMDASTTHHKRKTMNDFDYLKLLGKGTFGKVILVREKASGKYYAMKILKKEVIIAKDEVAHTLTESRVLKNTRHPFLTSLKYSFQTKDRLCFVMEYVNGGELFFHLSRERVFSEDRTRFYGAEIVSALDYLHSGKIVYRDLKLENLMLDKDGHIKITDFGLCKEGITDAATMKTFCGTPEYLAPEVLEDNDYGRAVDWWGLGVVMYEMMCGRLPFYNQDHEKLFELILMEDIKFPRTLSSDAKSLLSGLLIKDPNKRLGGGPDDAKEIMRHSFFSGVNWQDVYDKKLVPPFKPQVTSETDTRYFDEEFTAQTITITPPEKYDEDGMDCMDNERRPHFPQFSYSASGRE
DAPK1, sequence (P53355 whole entry, species assumed): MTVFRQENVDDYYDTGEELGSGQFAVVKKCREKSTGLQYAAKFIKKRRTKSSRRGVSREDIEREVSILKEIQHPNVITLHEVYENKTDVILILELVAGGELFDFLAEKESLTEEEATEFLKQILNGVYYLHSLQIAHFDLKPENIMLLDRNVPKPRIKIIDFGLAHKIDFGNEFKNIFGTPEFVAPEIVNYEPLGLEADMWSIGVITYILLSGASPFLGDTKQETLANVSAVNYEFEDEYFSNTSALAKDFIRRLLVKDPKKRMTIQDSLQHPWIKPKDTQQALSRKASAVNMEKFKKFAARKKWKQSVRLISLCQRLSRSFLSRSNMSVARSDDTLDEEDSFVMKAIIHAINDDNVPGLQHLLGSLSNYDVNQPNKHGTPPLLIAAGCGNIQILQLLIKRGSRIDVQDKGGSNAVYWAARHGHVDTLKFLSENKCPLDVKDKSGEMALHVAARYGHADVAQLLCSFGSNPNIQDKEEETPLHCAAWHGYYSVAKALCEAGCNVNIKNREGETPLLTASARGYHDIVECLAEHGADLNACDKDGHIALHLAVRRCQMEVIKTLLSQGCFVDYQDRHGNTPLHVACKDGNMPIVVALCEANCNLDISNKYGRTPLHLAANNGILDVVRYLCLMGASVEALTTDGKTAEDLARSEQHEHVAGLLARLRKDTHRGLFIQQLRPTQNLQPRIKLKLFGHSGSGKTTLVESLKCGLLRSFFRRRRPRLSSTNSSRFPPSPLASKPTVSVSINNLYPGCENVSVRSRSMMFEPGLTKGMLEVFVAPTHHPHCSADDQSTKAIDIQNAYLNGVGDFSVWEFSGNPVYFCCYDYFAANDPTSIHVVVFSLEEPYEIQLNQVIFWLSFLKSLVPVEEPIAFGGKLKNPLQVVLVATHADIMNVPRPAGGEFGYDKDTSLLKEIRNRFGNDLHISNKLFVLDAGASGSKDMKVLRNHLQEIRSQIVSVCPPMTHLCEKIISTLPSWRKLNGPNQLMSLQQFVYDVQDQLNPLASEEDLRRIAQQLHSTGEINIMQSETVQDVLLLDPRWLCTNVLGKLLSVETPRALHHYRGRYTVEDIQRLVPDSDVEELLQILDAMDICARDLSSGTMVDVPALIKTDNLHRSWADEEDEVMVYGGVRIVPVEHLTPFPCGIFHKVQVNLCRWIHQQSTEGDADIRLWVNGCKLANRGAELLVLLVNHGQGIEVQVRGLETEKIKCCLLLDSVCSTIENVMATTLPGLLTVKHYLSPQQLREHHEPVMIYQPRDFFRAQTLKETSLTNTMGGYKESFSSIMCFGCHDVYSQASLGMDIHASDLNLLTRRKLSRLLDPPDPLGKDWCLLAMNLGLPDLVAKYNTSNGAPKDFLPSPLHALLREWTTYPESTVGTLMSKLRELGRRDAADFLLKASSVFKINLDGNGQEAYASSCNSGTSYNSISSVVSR
PAK3, sequence (O75914 whole entry, species assumed): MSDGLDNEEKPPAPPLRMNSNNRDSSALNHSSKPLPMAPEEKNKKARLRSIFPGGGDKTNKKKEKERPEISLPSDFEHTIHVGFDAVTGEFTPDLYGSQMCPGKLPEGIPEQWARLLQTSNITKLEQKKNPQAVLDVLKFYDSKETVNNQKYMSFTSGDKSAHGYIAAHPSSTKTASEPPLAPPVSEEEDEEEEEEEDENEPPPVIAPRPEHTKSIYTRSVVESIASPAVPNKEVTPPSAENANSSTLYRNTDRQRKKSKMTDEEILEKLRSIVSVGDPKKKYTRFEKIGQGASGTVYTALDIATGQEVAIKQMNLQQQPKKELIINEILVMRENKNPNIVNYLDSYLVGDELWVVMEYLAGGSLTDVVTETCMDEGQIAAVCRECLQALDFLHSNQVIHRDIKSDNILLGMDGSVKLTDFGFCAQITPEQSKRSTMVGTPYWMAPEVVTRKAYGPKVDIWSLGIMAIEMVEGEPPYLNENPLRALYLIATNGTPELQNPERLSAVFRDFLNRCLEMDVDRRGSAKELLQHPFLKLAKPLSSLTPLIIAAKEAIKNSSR
MAPK1, sequence (P28482 whole entry, species assumed): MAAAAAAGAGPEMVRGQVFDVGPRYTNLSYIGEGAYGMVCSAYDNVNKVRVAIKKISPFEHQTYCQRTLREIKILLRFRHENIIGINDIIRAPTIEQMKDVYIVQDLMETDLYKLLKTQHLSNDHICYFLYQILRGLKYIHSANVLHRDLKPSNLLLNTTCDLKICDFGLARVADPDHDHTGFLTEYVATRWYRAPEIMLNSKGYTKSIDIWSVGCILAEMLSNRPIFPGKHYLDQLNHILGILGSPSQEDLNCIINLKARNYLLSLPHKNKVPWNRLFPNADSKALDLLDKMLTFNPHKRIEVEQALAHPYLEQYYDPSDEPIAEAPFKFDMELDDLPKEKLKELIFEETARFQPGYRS
CAMK2 alpha, sequence (Q9UQM7 whole entry): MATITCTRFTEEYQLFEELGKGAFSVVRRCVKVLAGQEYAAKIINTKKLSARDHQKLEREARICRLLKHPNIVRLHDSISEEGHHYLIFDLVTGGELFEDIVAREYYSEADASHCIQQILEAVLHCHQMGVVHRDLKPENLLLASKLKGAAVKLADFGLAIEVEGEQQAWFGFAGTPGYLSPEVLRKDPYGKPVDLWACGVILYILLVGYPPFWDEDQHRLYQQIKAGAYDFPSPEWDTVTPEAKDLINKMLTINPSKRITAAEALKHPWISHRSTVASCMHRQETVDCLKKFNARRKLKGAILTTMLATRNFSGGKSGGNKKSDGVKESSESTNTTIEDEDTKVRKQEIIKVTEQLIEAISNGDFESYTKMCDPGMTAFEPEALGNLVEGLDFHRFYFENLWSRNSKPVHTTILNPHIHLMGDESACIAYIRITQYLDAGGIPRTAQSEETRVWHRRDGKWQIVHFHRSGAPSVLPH

| inhibition at 1 µM (AKT1) [%] | inhibition at 10 µM (AKT1) [%] | inhibition at 1 µM (AKT3) [%] | inhibition at 10 µM (AKT3) [%] | inhibition at 1 µM (CHK1) [%] | inhibition at 10 µM (CHK1) [%] | inhibition at 1 µM (DAPK1) [%] | inhibition at 10 µM (DAPK1) [%] | inhibition at 1 µM (MAPK1) [%] | inhibition at 10 µM (MAPK1) [%] | inhibition of MAPK1, in words (MAPK1) | inhibition at 1 µM (CDK2/A2) [%] | SMILES | IC50 [1] [µM] | inhibition at 100 µM [1] [%] | IC50 [2] [µM] | inhibition at 100 µM [2] [%] | IC50 [3] [µM] | inhibition at 100 µM [3] [%] | IC50 [4] [µM] | inhibition at 100 µM [5] [%] | further results |
| --- | --- | --- | --- | --- | --- | --- | --- | --- | --- | --- | --- | --- | --- | --- | --- | --- | --- | --- | --- | --- | --- |
| 10.4 | -6.77 | 16.1 | -2.65 | 10.2 | -0.18 | 8.48 | -7.18 | 28.8 | 17.6 | certain inhibitions | 23.4 | O=C(Nc1cccc(C(F)(F)F)c1)c1cccnc1Nc1cccc(C(F)(F)F)c1 [C6, N-(3-(Trifluoromethyl)phenyl)-2-((3-(trifluoromethyl)phenyl)amino)nicotinamide] | 5.53 ± 0.82 | 90.5 ± 3.8 | 12.8 ± 1.99 | 91.5 ± 2.9 | 9.99 ± 1.58 | 91.3 ± 3.7 | 9.72 ± 2.75 | 89.8 ± 3.4 | inhibition at 10 µM (CDK2/A2): 15%; inhibition of CDK2/A2, in words (CDK2/A2): certain inhibitions; inhibition at 1 µM (ERK1): 6.76%; inhibition at 10 µM (ERK1): -6.1%; inhibition at 1 µM (PAK3): 10.1%; inhibition at 10 µM (PAK3): 1.34%; inhibition at 1 µM (CAMK2 alpha): 5.12%; inhibition at 10 µM (CAMK2 alpha): 37.8% |
| 13.3 | -5.21 | 20.1 | -0.49 | 19.5 | 3.66 | -2.25 | 6.49 | 24.4 | 7.96 | some inhibitions | 26.8 | O=C(Nc1ccc(Cl)nc1)c1cccnc1Nc1cccc(C(F)(F)F)c1 [C11, N-(6-Chloropyridin-3-yl)-2-((3-(trifluoromethyl)phenyl)amino)nicotinamide] | 9.13 ± 3.52 | 85.6 ± 4.3 | 12.3 ± 4.16 | 90.5 ± 3.7 | 10.2 ± 2.04 | 85.7 ± 2.4 | > 102 | 27.1 ± 3.6 | inhibition on normal cell lines (MARC145), in words [5]: low inhibition; inhibition at 10 µM (CDK2/A2): 16.7%; inhibition of CDK2/A2, in words (CDK2/A2): some inhibitions; inhibition at 1 µM (ERK1): 18.2%; inhibition at 10 µM (ERK1): 3.07%; inhibition at 1 µM (PAK3): 11.8%; inhibition at 10 µM (PAK3): 8.14%; inhibition at 1 µM (CAMK2 alpha): 5.65%; inhibition at 10 µM (CAMK2 alpha): -1.53% |

— paper PMC9315260, “Diarylamine-Guided Carboxamide Derivatives: Synthesis, Biological Evaluation, and Potential Mechanism of Action” (Frontiers in Chemistry, 2022)
